Experimental data published in publication PMC4594927 (PLoS ONE, 2015).

Experiments:
MtbIMPDH2ΔCBS [1] = target: T1, MtbIMPDH2ΔCBS (Mycobacterium tuberculosis, UniProt P9WKI7, DEL126-250/R252G); assay type: biochemical
MtbIMPDH2ΔCBS [2] = target: T1, MtbIMPDH2ΔCBS; assay type: biochemical; remark: listed apart in the source

| Structure (SMILES) | mechanism of inhibition vs. IMP (MtbIMPDH2ΔCBS [1]) | mechanism of inhibition vs. NAD^+ (MtbIMPDH2ΔCBS [1]) | mechanism of inhibition with respect to IMP (MtbIMPDH2ΔCBS [1]) | mechanism of inhibition with respect to NAD+ (MtbIMPDH2ΔCBS [1]) | Kii (NAD+) (MtbIMPDH2ΔCBS [2]) [mM] |
| --- | --- | --- | --- | --- | --- |
| C[C@H](Nc1cccc(Cl)c1Cl)C(=O)Nc1ccc2oc(-c3ccncc3)nc2c1 [Q67] | 17 ± 9 (UC) | 7 ± 7 (C) | uncompetitive | competitive |  |
| NC(=O)c1ccc[n+]([C@@H]2O[C@H](COP(=O)([O-])OP(=O)(O)OC[C@H]3O[C@@H](n4cnc5c(N)ncnc54)[C@H](O)[C@@H]3O)[C@@H](O)[C@H]2O)c1 [NAD+] |  |  |  |  | 16 ± 1 |
| COc1c(C)c2c(c(O)c1C/C=C(\C)Cn1cc(COC[C@H]3O[C@@H](n4cnc5c(N)ncnc54)[C@H](O)[C@@H]3O)nn1)C(=O)OC2 [MAD1, reference compound] | 1000 ± 50 (UC) | 1400 ± 100 (UC) | uncompetitive | uncompetitive |  |
| C=C(C)c1cccc(C(C)(C)NC(=O)Nc2ccc(Cl)c(C(=O)N(C)C)c2)c1 [P41] | 9 ± 4 (UC) | 13 ± 4 (NC) | uncompetitive | noncompetitive |  |
